Measurements published in US8450313B2, “2,3-diaryl- or heteroaryl-substituted 1,1,1-trifluoro-2-hydroxypropyl compounds” (Hoffmann-La Roche Inc., priority 2009, dated 2013).

target: T1, full length human recombinant glucocorticoid receptor (Homo sapiens, UniProt P04150); assay: Glucocorticoid Receptor Binding Assay (Glucocorticoid Receptor Competitor Assay far red kit, fluorescence polarization); details: competition with fluorescent GR ligand Fluormone GS Far Red, 3 hours at 22° C., pH 7.4; Ki calculated from IC50 by Cheng-Prusoff
T1 construct: It contains some partially purified full length human recombinant glucocorticoid receptor; purchased Panvera/Invitrogen PV4302
T1 sequence (P04150 1-777): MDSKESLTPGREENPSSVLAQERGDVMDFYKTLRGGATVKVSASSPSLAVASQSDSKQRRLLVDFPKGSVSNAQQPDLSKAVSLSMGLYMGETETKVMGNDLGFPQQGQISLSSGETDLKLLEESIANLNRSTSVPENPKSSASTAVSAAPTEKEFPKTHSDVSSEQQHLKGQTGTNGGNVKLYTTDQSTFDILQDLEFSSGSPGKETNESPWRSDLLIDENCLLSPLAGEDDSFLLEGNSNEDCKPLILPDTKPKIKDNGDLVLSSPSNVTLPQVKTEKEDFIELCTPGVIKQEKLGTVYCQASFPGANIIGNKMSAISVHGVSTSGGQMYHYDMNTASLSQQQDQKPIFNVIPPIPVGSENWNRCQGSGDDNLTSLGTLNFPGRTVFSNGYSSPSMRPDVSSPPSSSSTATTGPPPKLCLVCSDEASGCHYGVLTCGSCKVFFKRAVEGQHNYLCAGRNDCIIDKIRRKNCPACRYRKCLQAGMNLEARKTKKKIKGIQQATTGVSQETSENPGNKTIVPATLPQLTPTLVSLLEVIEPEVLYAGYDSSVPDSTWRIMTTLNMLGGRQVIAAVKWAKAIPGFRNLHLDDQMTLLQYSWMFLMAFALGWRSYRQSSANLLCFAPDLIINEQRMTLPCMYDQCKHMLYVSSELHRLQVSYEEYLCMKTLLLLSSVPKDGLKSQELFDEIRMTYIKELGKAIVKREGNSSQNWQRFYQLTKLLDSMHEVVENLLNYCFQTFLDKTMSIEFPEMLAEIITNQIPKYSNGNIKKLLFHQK
Procedure, shortened: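 Compounds in serial dilution (from intermediate 4.2% DMSO stock) displace Fluormone GS Far Red from full-length human recombinant GR with stabilizing peptide, pH 7.4, incubated 3 hours at 22° C dark. Polarized fluorescence (610–660 nm) gives IC50 via sigmoidal fit, converted to Ki by Cheng-Prusoff.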

| SMILES | Ki [nM] |
| --- | --- |
| C[C@H](c1ccc(Oc2nc(C(F)(F)F)ccc2C(=O)O)cc1Cl)[C@@](O)(c1ccc2c(c1)n(C)c(=O)n2C)C(F)(F)F (stereo in doubt) [Example 111, 2-{3-Chloro-4-[2-(1,3-dimethyl-2-oxo-2,3-dihydro-1H-benzoimidazol-5-yl)-3,3,3-trifluoro-2-hydroxy-1-methyl-propyl]-phenoxy}-6-trifluoromethyl-nicotinic acid] | 36 |
| C[C@H](c1ccc(Oc2ccc(C(F)(F)F)c(C(=O)O)n2)cc1Cl)[C@@](O)(c1ccc2c(c1)n(C)c(=O)n2C)C(F)(F)F (stereo in doubt) [Example 112, 6-{3-Chloro-4-[2-(1,3-dimethyl-2-oxo-2,3-dihydro-1H-benzoimidazol-5-yl)-3,3,3-trifluoro-2-hydroxy-1-methyl-propyl]-phenoxy}-3-trifluoromethyl-pyridine-2-carboxylic acid] | 26.4 |
| C[C@H](c1ccc(Oc2c(C(=O)O)ccnc2Cl)cc1Cl)[C@@](O)(c1ccc2c(c1)n(C)c(=O)n2C)C(F)(F)F (stereo in doubt) [Example 113, 2-Chloro-3-{3-chloro-4-[2-(1,3-dimethyl-2-oxo-2,3-dihydro-1H-benzoimidazol-5-yl)-3,3,3-trifluoro-2-hydroxy-1-methyl-propyl]-phenoxy}-isonicotinic acid] | 6.2 |
| C[C@@H](c1ccc(Oc2ccc(C(=O)O)c(C(F)(F)F)n2)cc1Cl)[C@](O)(c1ccc2c(c1)n(C)c(=O)n2C)C(F)(F)F (stereo in doubt) [Example 115, 6-{3-Chloro-4-[2-(1,3-dimethyl-2-oxo-2,3-dihydro-1H-benzoimidazol-5-yl)-3,3,3-trifluoro-2-hydroxy-1-methyl-propyl]-phenoxy}-2-trifluoromethyl-nicotinic acid] | 1.1 |
| COC(=O)c1ccc(-c2ccc([C@@H](C)[C@@](O)(c3ccc4oc(=O)n(C)c4c3)C(F)(F)F)c(Cl)c2)nc1 (stereo in doubt) [Example 127, 6-{3-Chloro-4-[3,3,3-trifluoro-2-hydroxy-1-methyl-2-(3-methyl-2-oxo-2,3-dihydro-benzooxazol-5-yl)-propyl]-phenyl}-nicotinic acid methyl ester] | 0.7 |
| C[C@H](c1ccc(-c2ccc(OCC(=O)O)cc2)cc1Cl)[C@@](O)(c1ccc2oc(=O)n(C)c2c1)C(F)(F)F (stereo in doubt) [Example 130, {3′-Chloro-4′-[3,3,3-trifluoro-2-hydroxy-1-methyl-2-(3-methyl-2-oxo-2,3-dihydro-benzooxazol-5-yl)-propyl]-biphenyl-4-yloxy}-acetic acid] | 0.5 |
| COc1cc(-c2ccc([C@@H](C)[C@@](O)(c3ccc4oc(=O)n(C)c4c3)C(F)(F)F)c(Cl)c2)ccc1C(=O)O (stereo in doubt) [Example 132, 3′-Chloro-3-methoxy-4′-[3,3,3-trifluoro-2-hydroxy-1-methyl-2-(3-methyl-2-oxo-2,3-dihydro-benzooxazol-5-yl)-propyl]-biphenyl-4-carboxylic acid] | 3 |
| C[C@@H](c1ccc(-c2ccc(C(=O)O)c(F)c2)cc1Cl)[C@](O)(c1cc2c(cc1F)OCC(=O)N2C)C(F)(F)F (stereo in doubt) [Example 137, 3′-Chloro-3-fluoro-4′-[3,3,3-trifluoro-2-(7-fluoro-4-methyl-3-oxo-3,4-dihydro-2H-benzo[1,4]oxazin-6-yl)-2-hydroxy-1-methyl-propyl]-biphenyl-4-carboxylic acid] | 20 |
| C[C@@H](c1ccc(Oc2ccc(C(=O)O)c(Cl)c2)cc1Cl)[C@](O)(c1cc2c(cc1F)OCC(=O)N2C)C(F)(F)F (stereo in doubt) [Example 139, 2-Chloro-4-{3-chloro-4-[3,3,3-trifluoro-2-(7-fluoro-4-methyl-3-oxo-3,4-dihydro-2H-benzo[1,4]oxazin-6-yl)-2-hydroxy-1-methyl-propyl]-phenoxy}-benzoic acid] | 2.7 |
